Test results from patent US20070020306A1, “Endovascular implant with an at least sectional active coating made of radjadone and/or a ratjadone derivative” (priority 2003, published 2007).

Tested on: aortal, smooth vascular muscle cells
Assay: inhibition of the growth of aortal, smooth vascular muscle cells
Assay type: cell-based, human
Details: pharmacologically active even in the smallest concentrations of active substance
Procedure: This effect already occurs starting at 1 to 100 nM, preferably 5 to 50 nM, so that already extremely low local concentrations are sufficient for an effective inhibition of restenosis in the region of an implant. This virtually precludes broader side-effects.

C/C=C/[C@@H]1O[C@H]([C@H](O)/C=C/C=C(\C)C[C@@H](C)/C=C(C)\C=C\[C@H]2CC=CC(=O)O2)C[C@@H](O)[C@@H]1C [Ratjadone]
potency in first experiments: particularly potent
